Experimental data as given in PubChem BioAssay (NCI).
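Cells were grown in 96-well plates and exposed to each compound for 48 hours at five concentrations; endpoints were interpolated linearly between bracketing concentrations, or set to the highest concentration if not reached. TGI marks complete inhibition of growth.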 Where a SMILES comes first, the peptide text is derived from it. The star is where a group is joined. Boc = CC(C)(C)OC(=O)*; OSu = O=C1CCC(=O)N1O*

Assays:
Assay in all cases: DTP human tumour cell line panel, 48 h
[1] = system: 786-0 renal
[2] = system: A549 NSCLC
[3] = system: ACHN renal
[4] = system: BT-549 breast
[5] = system: CAKI-1 renal
[6] = system: COLO 205 colon
[7] = system: DU-145 prostate
[8] = system: EKVX NSCLC
[9] = system: HCC-2998 colon
[10] = system: HCT-116 colon
[11] = system: HCT-15 colon
[12] = system: HOP-62 NSCLC
[13] = system: HOP-92 NSCLC
[14] = system: HT29 colon
[15] = system: IGROV1 ovarian
[16] = system: K-562 leukemia
[17] = system: KM12 colon
[18] = system: M14 melanoma
[19] = system: MALME-3M melanoma
[20] = system: MCF7 breast
[21] = system: MDA-MB-231 breast
[22] = system: MDA-MB-435
[23] = system: MDA-N
[24] = system: MOLT-4 leukemia
[25] = system: NCI-H226 lung
[26] = system: NCI-H23 lung
[27] = system: NCI-H460 lung
[28] = system: NCI-H522 lung
[29] = system: NCI/ADR-RES ovarian
[30] = system: OVCAR-3 ovarian
[31] = system: OVCAR-5 ovarian
[32] = system: OVCAR-8 ovarian
[33] = system: PC-3 prostate
[34] = system: RPMI-8226 leukemia
[35] = system: RXF 393 renal
[36] = system: SF-268 CNS
[37] = system: SF-295 CNS
[38] = system: SF-539 CNS
[39] = system: SK-MEL-2 melanoma
[40] = system: SK-MEL-28 melanoma
[41] = system: SK-MEL-5 melanoma
[42] = system: SK-OV-3 ovarian
[43] = system: SN12C renal
[44] = system: SNB-19 CNS
[45] = system: SNB-75 CNS
[46] = system: SR leukemia
[47] = system: SW-620 colon
[48] = system: T-47D breast
[49] = system: TK-10 renal
[50] = system: U251 CNS
[51] = system: UACC-257 melanoma
[52] = system: UACC-62 melanoma
[53] = system: UO-31 renal
[54] = system: A498 renal
[55] = system: CCRF-CEM leukemia
[56] = system: HL-60(TB) leukemia
[57] = system: LOX IMVI melanoma
[58] = system: HS 578T breast
[59] = system: OVCAR-4 ovarian

For `CC(NC(=O)C(NC(=O)OC(C)(C)C)C(C)C)C(=O)NCC(=O)ON1C(=O)CCC1=O` (stereo not drawn) (Boc-Val-Ala-Gly-OSu; configuration not given here), the TGI [1] was > 100 µM, the TGI [2] was > 100 µM and the TGI [3] was > 100 µM. The TGI [4] was > 100 µM, the TGI [5] was > 100 µM and the TGI [6] was > 100 µM. For the same compound, the TGI [7] was > 100 µM, the TGI [8] was > 100 µM and the TGI [9] was > 100 µM. The TGI [10] was > 100 µM, the TGI [11] was > 100 µM and the TGI [12] was > 100 µM. The TGI [13] was > 100 µM, the TGI [14] was > 100 µM and the TGI [15] was > 100 µM. The TGI [16] was > 100 µM, the TGI [17] was > 100 µM and the TGI [18] was > 100 µM. For the same compound, the TGI [19] was > 100 µM, the TGI [20] was > 100 µM and the TGI [21] was > 100 µM. For the same compound, the TGI [22] was > 100 µM, the TGI [23] was > 100 µM and the TGI [24] was > 100 µM. For the same compound, the TGI [25] was > 100 µM, the TGI [26] was > 100 µM and the TGI [27] was > 100 µM. The TGI [28] was > 100 µM, the TGI [29] was > 100 µM and the TGI [30] was > 100 µM. The TGI [31] was > 100 µM, the TGI [32] was > 100 µM and the TGI [33] was > 100 µM. The TGI [34] was > 100 µM, the TGI [35] was > 100 µM and the TGI [36] was > 100 µM. The TGI [37] was > 100 µM, the TGI [38] was > 100 µM and the TGI [39] was > 100 µM. For the same compound, the TGI [40] was > 100 µM, the TGI [41] was > 100 µM and the TGI [42] was > 100 µM. For the same compound, the TGI [43] was > 100 µM, the TGI [44] was > 100 µM and the TGI [45] was > 100 µM. The TGI [46] was > 100 µM, the TGI [47] was > 100 µM and the TGI [48] was > 100 µM. For the same compound, the TGI [49] was > 100 µM, the TGI [50] was > 100 µM and the TGI [51] was > 100 µM. For the same compound, the TGI [52] was > 100 µM and the TGI [53] was > 100 µM.
In the case of `CCCSc1ccc2[nH]c(N3C(=O)/C(=C/c4ccco4)N=C3c3ccccc3)cc2c1`, the TGI [1] is reported as > 50 µM, the TGI [54] is reported as > 50 µM and the TGI [2] is reported as > 50 µM. For the same compound, the TGI [3] was > 50 µM, the TGI [4] was > 50 µM and the TGI [5] was > 50 µM. For the same compound, the TGI [55] was > 50 µM, the TGI [6] was 32.8 µM and the TGI [7] was > 50 µM. For the same compound, the TGI [8] was > 50 µM, the TGI [9] was > 50 µM and the TGI [10] was > 50 µM. The TGI [11] was > 50 µM, the TGI [56] was > 50 µM and the TGI [12] was > 50 µM. The TGI [13] was > 50 µM, the TGI [14] was > 50 µM and the TGI [15] was > 50 µM. For the same compound, the TGI [16] was > 50 µM, the TGI [17] was > 50 µM and the TGI [57] was > 50 µM. For the same compound, the TGI [18] was > 50 µM, the TGI [19] was > 50 µM and the TGI [20] was > 50 µM. For the same compound, the TGI [22] was 28 µM, the TGI [23] was 20.1 µM and the TGI [24] was > 50 µM. For the same compound, the TGI [26] was > 50 µM, the TGI [27] was > 50 µM and the TGI [28] was 37.8 µM. The TGI [29] was > 50 µM, the TGI [30] was > 50 µM and the TGI [31] was > 50 µM. For the same compound, the TGI [32] was > 50 µM, the TGI [33] was > 50 µM and the TGI [34] was > 50 µM. For the same compound, the TGI [35] was > 50 µM, the TGI [36] was > 50 µM and the TGI [38] was 25 µM. The TGI [39] was 24.4 µM, the TGI [40] was > 50 µM and the TGI [41] was 30.3 µM. For the same compound, the TGI [43] was > 50 µM, the TGI [44] was > 50 µM and the TGI [45] was > 50 µM. The TGI [46] was > 50 µM, the TGI [47] was > 50 µM and the TGI [48] was > 50 µM. For the same compound, the TGI [51] was > 50 µM, the TGI [52] was > 50 µM and the TGI [53] was > 50 µM.
For `O=C(/C=C/c1ccc(O)c(O)c1)OCCCc1ccccc1`, the TGI [1] was 18.1 µM, the TGI [54] was 30.4 µM and the TGI [2] was 31.3 µM. For the same compound, the TGI [3] was 21.2 µM, the TGI [5] was 47 µM and the TGI [6] was 27.1 µM. For the same compound, the TGI [7] was 31.6 µM, the TGI [8] was 63.8 µM and the TGI [9] was 39.5 µM. For the same compound, the TGI [10] was 22.4 µM, the TGI [11] was 26.4 µM and the TGI [56] was 4.84 µM. For the same compound, the TGI [12] was 26.6 µM, the TGI [13] was 30.6 µM and the TGI [58] was 74.5 µM. For the same compound, the TGI [14] was 48.4 µM, the TGI [15] was 12.1 µM and the TGI [16] was 58.9 µM. The TGI [57] was 27.1 µM, the TGI [18] was 22.6 µM and the TGI [19] was 25.4 µM. It also gave a TGI [20] of 26.8 µM, a TGI [21] of 25.2 µM and a TGI [22] of 24.6 µM. For the same compound, the TGI [23] was 31.3 µM, the TGI [24] was 36.4 µM and the TGI [25] was 34.6 µM. The TGI [26] was 35.3 µM, the TGI [27] was 55.6 µM and the TGI [28] was 5.59 µM. The TGI [29] was 28.6 µM, the TGI [30] was 6.6 µM and the TGI [59] was 20.7 µM. The TGI [31] was 37.3 µM, the TGI [33] was 24.4 µM and the TGI [34] was 49.4 µM. For the same compound, the TGI [35] was 25.5 µM, the TGI [36] was 24 µM and the TGI [37] was 38.9 µM. The TGI [38] was 5.81 µM, the TGI [39] was 46.4 µM and the TGI [40] was 31.2 µM. The TGI [41] was 26.3 µM, the TGI [42] was 58.9 µM and the TGI [43] was 25.3 µM. For the same compound, the TGI [44] was 33.6 µM, the TGI [46] was 22.8 µM and the TGI [47] was 32 µM. The TGI [48] was 45.9 µM, the TGI [50] was 23.4 µM and the TGI [51] was 63.4 µM. For the same compound, the TGI [52] was 23.6 µM and the TGI [53] was 14.8 µM.
In the case of `CC(=O)[C@@]1(C)CC2(CCN(C)CC2)OC1C` (some centres not stated), the TGI [1] is reported as > 100 µM, the TGI [54] is reported as > 100 µM and the TGI [2] is reported as > 100 µM. The TGI [3] was > 100 µM, the TGI [4] was > 100 µM and the TGI [5] was > 100 µM. For the same compound, the TGI [6] was > 100 µM, the TGI [7] was > 100 µM and the TGI [8] was > 100 µM. The TGI [10] was > 100 µM, the TGI [11] was > 100 µM and the TGI [12] was > 100 µM. For the same compound, the TGI [13] was > 100 µM, the TGI [14] was > 100 µM and the TGI [15] was > 100 µM. For the same compound, the TGI [16] was > 100 µM, the TGI [17] was > 100 µM and the TGI [57] was > 100 µM. The TGI [18] was > 100 µM, the TGI [19] was > 100 µM and the TGI [21] was > 100 µM. The TGI [22] was > 100 µM, the TGI [23] was > 100 µM and the TGI [24] was > 100 µM. The TGI [25] was > 100 µM, the TGI [26] was > 100 µM and the TGI [27] was > 100 µM. The TGI [28] was > 100 µM, the TGI [29] was > 100 µM and the TGI [30] was > 100 µM. For the same compound, the TGI [59] was > 100 µM, the TGI [31] was > 100 µM and the TGI [32] was > 100 µM. For the same compound, the TGI [34] was > 100 µM, the TGI [35] was > 100 µM and the TGI [36] was > 100 µM. The TGI [37] was > 100 µM, the TGI [38] was > 100 µM and the TGI [40] was > 100 µM. For the same compound, the TGI [41] was > 100 µM, the TGI [42] was > 100 µM and the TGI [43] was > 100 µM. The TGI [44] was > 100 µM, the TGI [45] was > 100 µM and the TGI [47] was > 100 µM. The TGI [48] was > 100 µM, the TGI [49] was > 100 µM and the TGI [50] was > 100 µM. The TGI [51] was > 100 µM and the TGI [53] was > 100 µM.
